In one experiment the target is human NaV1.8 ion channel (Homo sapiens (Human), UniProt Q9Y5Y9). Kind of experiment: Compound inhibition activity on human NaV1.8 ion channel in HEK293 cells (whole-cell patch clamp). To be noted: 100 nm concentration; HEK293 cells, resting protocol. The experiment is classed as cell-based. The method, then: Test Case 1: Compound Inhibition Activity on Human NaV1.8 Ion Channel in HEK293 Cells
Chain of human NaV1.8 ion channel (Q9Y5Y9 whole entry): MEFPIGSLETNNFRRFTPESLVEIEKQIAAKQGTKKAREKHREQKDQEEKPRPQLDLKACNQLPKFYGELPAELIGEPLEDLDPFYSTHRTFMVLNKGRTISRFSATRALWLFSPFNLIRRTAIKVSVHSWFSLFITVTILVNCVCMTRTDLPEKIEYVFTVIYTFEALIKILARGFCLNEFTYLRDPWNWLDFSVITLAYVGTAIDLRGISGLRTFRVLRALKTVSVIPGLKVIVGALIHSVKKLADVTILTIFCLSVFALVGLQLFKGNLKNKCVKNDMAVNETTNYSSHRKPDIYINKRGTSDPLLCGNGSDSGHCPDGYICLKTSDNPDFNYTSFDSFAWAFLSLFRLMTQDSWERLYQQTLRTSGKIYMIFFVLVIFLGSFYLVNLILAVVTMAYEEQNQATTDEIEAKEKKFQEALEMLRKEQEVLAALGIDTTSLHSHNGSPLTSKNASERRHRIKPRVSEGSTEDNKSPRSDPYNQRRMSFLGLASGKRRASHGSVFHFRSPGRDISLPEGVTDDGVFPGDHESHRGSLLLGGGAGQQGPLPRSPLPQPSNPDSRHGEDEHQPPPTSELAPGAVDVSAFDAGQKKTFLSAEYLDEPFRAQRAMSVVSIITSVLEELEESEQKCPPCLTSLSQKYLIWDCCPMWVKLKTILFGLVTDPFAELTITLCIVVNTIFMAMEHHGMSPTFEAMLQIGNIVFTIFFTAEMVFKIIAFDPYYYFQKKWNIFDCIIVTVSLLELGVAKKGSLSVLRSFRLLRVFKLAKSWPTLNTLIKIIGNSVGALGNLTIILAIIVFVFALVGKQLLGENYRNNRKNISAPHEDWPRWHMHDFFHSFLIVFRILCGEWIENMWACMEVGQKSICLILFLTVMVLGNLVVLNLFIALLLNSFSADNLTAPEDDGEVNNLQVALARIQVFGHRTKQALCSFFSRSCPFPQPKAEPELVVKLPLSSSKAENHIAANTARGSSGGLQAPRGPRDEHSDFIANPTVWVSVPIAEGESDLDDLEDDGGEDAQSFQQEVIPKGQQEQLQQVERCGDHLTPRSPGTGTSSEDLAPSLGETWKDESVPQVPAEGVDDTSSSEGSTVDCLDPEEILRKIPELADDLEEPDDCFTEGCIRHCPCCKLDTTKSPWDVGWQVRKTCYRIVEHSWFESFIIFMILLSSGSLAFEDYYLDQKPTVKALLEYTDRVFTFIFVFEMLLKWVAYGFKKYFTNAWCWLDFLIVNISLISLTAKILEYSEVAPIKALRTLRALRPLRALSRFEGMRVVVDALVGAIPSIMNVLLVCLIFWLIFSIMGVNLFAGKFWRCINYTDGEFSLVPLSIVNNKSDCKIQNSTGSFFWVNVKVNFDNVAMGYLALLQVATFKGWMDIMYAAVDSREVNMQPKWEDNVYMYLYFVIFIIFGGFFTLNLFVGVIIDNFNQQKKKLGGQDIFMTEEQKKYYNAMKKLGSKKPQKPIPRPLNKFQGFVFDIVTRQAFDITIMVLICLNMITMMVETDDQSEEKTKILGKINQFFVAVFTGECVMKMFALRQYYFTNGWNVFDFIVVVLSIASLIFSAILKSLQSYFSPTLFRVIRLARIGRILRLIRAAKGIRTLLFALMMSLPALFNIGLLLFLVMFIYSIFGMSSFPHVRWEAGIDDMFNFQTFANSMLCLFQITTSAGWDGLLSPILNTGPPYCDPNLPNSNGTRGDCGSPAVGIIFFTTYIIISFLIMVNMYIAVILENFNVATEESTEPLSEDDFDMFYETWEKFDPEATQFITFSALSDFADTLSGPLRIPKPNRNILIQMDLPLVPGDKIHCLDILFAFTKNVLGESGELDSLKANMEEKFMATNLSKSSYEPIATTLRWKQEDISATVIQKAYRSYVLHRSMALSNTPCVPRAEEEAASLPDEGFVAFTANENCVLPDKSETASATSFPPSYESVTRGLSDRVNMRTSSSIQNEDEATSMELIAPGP
The final concentrations of the test compounds are prepared on the same day and then dissolved in extracellular solution. […] The intracellular solution (mM) contains: Aspartic acid, 140; MgCl2, 2; EGTA 11; HEPES, 10; pH 7.2 (CsOH titration). All test solutions contain 1 μM TTX.
The test solution are stored at a concentration of 3 mM in dimethyl sulfoxide (DMSO). The solutions will be dissolved in extracellular solution on the day of testing and prepared to the required concentration.
All experiments were performed at room temperature. Each cell itself is taken as the corresponding control.
At least one cell is tested per concentration.
HEK293 cell steady expressing NaV1.8 ion channel.
The intracellular fluid (mM) contains: Aspartic acid, 140; MgCl2, 2; EGTA 11; HEPES, 10; pH 7.2 (CsOH titration). […] Electrodes are drawn with PC-10 (Narishige, Japan). Recording is performed with whole-cell diaphragm clamp.
The cells are clamped at −80 mV and then depolarized to 10 mV with a sustained 10 ms square wave to give a Nav1.8 current. This procedure is repeated every 5 seconds.
(Patch clamp records ionic current or voltage across a cell membrane.)
In the case of “N-(3-(1-amino-3-fluoropropyl)-4-fluorophenyl)-4-cyclopropyl-2-(4-fluoro-2-methyl phenoxy)-5-(trifluoromethyl) benzamide [Example 21]”, the “Inhibition ratio of Nav1.8 (Activity of inhibition)” value (“Inhibition ratio” below) is “B (80 > B >= 50)”. Regarding `Cc1cc(F)ccc1Oc1ccc(C(F)(F)F)cc1C(=O)Nc1ccc(F)c(C2CCCN2)c1` (stereo not drawn) [Example 15, 2-(4-fluoro-2-methylphenoxy)-N-(4-fluoro-3-(pyrrolidin-2-yl)phenyl)-5-(trifluoromethyl) benzamide], the “Inhibition ratio” value is listed as “C (50 >C >= 20)”.

With `Cc1cc(F)ccc1Oc1ccc(C(F)(F)F)cc1C(=O)Nc1ccc(F)c(C2CCC(C(N)=O)N2)c1` (stereo not drawn) [Example 16, 5-(2-fluoro-5-(2-(4-fluoro-2-methylphenoxy)-5-(trifluoromethyl)benzamido)phenyl) pyrrolidine-2-carboxacylamino], the “Inhibition ratio” value is “D (D < 20)”.

Still in this experiment, the particulars now being: 100 nm concentration; HEK293 cells, resting protocol; read-out: Inhibition ratio of Nav1.8 (Activity of inhibition).
Consider `Cc1cc(F)ccc1Oc1cc(C2CC2)c(C(F)(F)F)cc1C(=O)Nc1ccc(F)c(C(N)CO)c1` (stereo not drawn) [Example 11, N-(3-(1-Amino-2-hydroxyethyl)-4-fluorophenyl)-4-cyclopropyl-2-(4-fluoro-2-methylphenoxy)-5-(trifluoromethyl) benzamide], for which the inhibition at 0.1 µM is above 80%.

As for `Cc1cc(F)ccc1Oc1ccc(C(F)(F)F)cc1C(=O)Nc1ccnc(CN)c1` [Example 40], the inhibition at 0.1 µM was in the range of 50 to 80%.

With `CNC(CCO)c1cc(NC(=O)c2cc(C(F)(F)F)c(C3CC3)cc2Oc2ccc(F)cc2C)ccc1F` (stereo not drawn) [Example 7, 4-Cyclopropyl-2-(4-fluoro-2-methylphenoxy)-N-(4-fluoro-3-(3-hydroxy-1-(methylamino)propyl)phenyl)-5-(trifluoromethyl) benzamide], the inhibition at 0.1 µM is above 80%. In the case of `CC(=O)NC(CCO)c1cc(NC(=O)c2cc(C(F)(F)F)c(C3CC3)cc2Oc2ccc(F)cc2C)ccc1F` (stereo not drawn) [Example 6, N-(3-(1-Acetylamino-3-hydroxypropyl)-4-fluorophenyl)-4-cyclopropyl-2-(4-fluoro-2-methylphenoxy)-5-(trifluoromethyl) benzamide], the inhibition at 0.1 µM lay in the range of 50 to 80%. `CNC(=O)C(N)c1cc(NC(=O)c2ccc(C(F)(F)F)cc2Oc2ccc(F)cc2C)ccc1F` (stereo not drawn) [Example 42]: the inhibition at 0.1 µM is above 80%. Regarding `Cc1cc(F)ccc1Oc1cc(C2CC2)c(C(F)(F)F)cc1C(=O)Nc1ccc(F)c(C(F)(F)C(=O)NCCO)c1` [Example 33, 4-Cyclopropyl-N-(3-(1,1-difluoro-2-((2-hydroxyethyl)amino)-2-oxoethyl)-4-fluorophenyl)-2-(4-fluoro-2-methylphenoxy)-5-(trifluoromethyl) benzamide], the inhibition at 0.1 µM was below 20%. Regarding `COCCNC(=O)C(N)c1cc(NC(=O)c2cc(C(F)(F)F)c(C3CC3)cc2Oc2ccc(F)cc2C)ccc1F` (stereo not drawn) [Example 44], the inhibition at 0.1 µM was 50 to 80%. For the compound `Cc1cc(F)ccc1Oc1cc(C2CC2)c(C(F)(F)F)cc1C(=O)Nc1ccc(F)c(C(N)C2CCNC2=O)c1` (stereo not drawn) [Example 19, N-(3-(amino (2-oxopyrrolidin-3-yl)methyl)-4-fluorophenyl)-4-cyclopropyl-2-(4-fluoro-2-methylphenoxy)-5-(trifluoromethyl) benzamide], the inhibition at 0.1 µM is above 80%.

The same experiment, now with this note: 100 nm concentration; HEK293 cells, resting protocol; read-out: Inhibition ratio of compounds against Nav1.8 (Activity of inhibition).
`Cc1cc(F)ccc1Oc1cc(C2CC2)c(C(F)(F)F)cc1C(=O)Nc1ccnc(OCC(O)CNC(C)(C)C)c1` (stereo not drawn) [Example 64, N-(2-(3-(tert-butylamino)-2-hydroxypropoxy)pyridin-4-yl)-4-cyclopropyl-2-(4-fluoro-2-methylphenoxy)-5-(trifluoromethyl) benzamide]: the inhibition at 0.1 µM is 20 to 50%.

For `Cc1cc(F)ccc1Oc1cc(C(F)(F)F)ccc1C(=O)Nc1ccnc(OC[C@H](O)CO)c1` [Example 108], the inhibition at 0.1 µM is 50 to 80%. As to `Cc1cc(F)ccc1Oc1cc(C(F)(F)F)c(Cl)cc1C(=O)Nc1ccc(F)c(OC[C@@H](O)CNC(=O)CO)c1` [Example 118], the inhibition at 0.1 µM fell in the range of 50 to 80%. With `Cc1cc(F)ccc1Oc1ccc(C(F)(F)F)cc1C(=O)Nc1ccnc(OC[C@H](O)CO)c1` [Example 122], the inhibition at 0.1 µM lay in the range of 50 to 80%.

Regarding `Cc1cc(F)ccc1Oc1cc(C2CC2)c(C(F)(F)F)cc1C(=O)Nc1ccc(F)c(O)c1` [Example 56, 4-cyclopropyl-2-(4-fluoro-2-methylphenoxy)-N-(4-fluoro-3-hydroxyphenyl)-5-(trifluoromethyl) benzamide], the inhibition at 0.1 µM is 50 to 80%. With `Cc1cc(F)ccc1Oc1cc(C2CC2)c(C(F)(F)F)cc1C(=O)Nc1ccc(F)c(OCC(O)CNC(=O)CO)c1` (stereo not drawn) [Example 65, 4-Cyclopropyl-2-(4-fluoro-2-methylphenoxy)-N-(4-fluoro-3-(2-hydroxy-3-(2-hydroxyacetylamino)propoxy)phenyl)-5-(trifluoromethyl) benzamide], the inhibition at 0.1 µM is above 80%. Regarding `Cc1cc(F)ccc1Oc1cc(C2CC2)c(C(F)(F)F)cc1C(=O)Nc1ccc(F)c(OCC(O)CN)c1` (stereo not drawn) [Example 57, N-(3-(3-amino-2-hydroxypropoxy)-4-fluorophenyl)-4-cyclopropyl-2-(4-fluoro-2-methylphenoxy)-5-(trifluoromethyl) benzamide], the inhibition at 0.1 µM was above 80%. As for `Cc1cc(F)ccc1Oc1cc(C2CC2)c(C(F)(F)F)cc1C(=O)Nc1ccc(F)c(C(C)C(O)CNC(C)(C)C)c1` (stereo not drawn) [Example 55, N-(3-(4-(tert-butylamino)-3-hydroxybutan-2-yl)-4-fluorophenyl)-4-cyclopropyl-2-(4-fluoro-2-methylphenoxy)-5-(trifluoromethyl) benzamide], the inhibition at 0.1 µM is above 80%.

As for `Cc1cc(F)ccc1Oc1cc(C2CC2)c(C(F)(F)F)cc1C(=O)Nc1ccnc(OC[C@@H](O)CO)c1` [Example 105], the inhibition at 0.1 µM fell in the range of 50 to 80%.

Take `Cc1cc(F)ccc1Oc1cc(C2CC2)c(C(F)(F)F)cc1C(=O)Nc1ccc(F)c(OCC(O)CNC2CC2)c1` (stereo not drawn) [Example 78]: the inhibition at 0.1 µM was above 80%. Turning to `Cc1cc(F)ccc1Oc1cc(C2CC2)c(C(F)(F)F)cc1C(=O)Nc1ccc(F)c(OC2CCC(CO)OC2)c1` (stereo not drawn) [Example 84], the inhibition at 0.1 µM lay within 20 to 50%. Turning to `Cc1cc(F)ccc1Oc1cc(C2CC2)c(C(F)(F)F)cc1C(=O)Nc1ccnc(C(F)(F)F)c1` [Example 69], the inhibition at 0.1 µM is 20 to 50%. On to `Cc1cc(F)ccc1Oc1cc(C2CC2)c(C(F)(F)F)cc1C(=O)Nc1ccnc(C(C)(C)O)c1` [Example 70], for which the inhibition at 0.1 µM fell in the range of 20 to 50%. For the compound `COc1ccc(NCC(O)COc2cc(NC(=O)c3cc(C(F)(F)F)c(C4CC4)cc3Oc3ccc(F)cc3C)ccc2F)cc1` (stereo not drawn) [Example 95], the inhibition at 0.1 µM was 20 to 50%. Take `Cc1cc(F)ccc1Oc1cc(C2CC2)c(C(F)(F)F)cc1C(=O)Nc1ccc(F)c(OCc2ncc[nH]2)c1` [Example 74]: the inhibition at 0.1 µM lay in the range of 50 to 80%. Turning to `Cc1cc(F)ccc1Oc1cc(C2CC2)c(C(F)(F)F)cc1C(=O)Nc1ccc(F)c(OCc2nccs2)c1` [Example 75], the inhibition at 0.1 µM fell in the range of 50 to 80%.

For `Cc1cc(F)ccc1Oc1cc(C2CC2)c(C(F)(F)F)cc1C(=O)Nc1ccc(F)c(C(N)CC(C)N)c1` (stereo not drawn) [Example 46, 4-Cyclopropyl-N-(3-(1,3-diaminobutyl)-4-fluorophenyl)-2-(4-fluoro-2-methylphenoxy)-5-(trifluoromethyl) benzamide], the inhibition at 0.1 µM is above 80%. Take `Cc1cc(F)ccc1Oc1cc(C2CC2)c(C(F)(F)F)cc1C(=O)Nc1ccc(F)c(OC2CC(N)C2)c1` (stereo not drawn) [Example 58, N-(3-(3-aminocyclobutoxy)-4-fluorophenyl)-4-cyclopropyl-2-(4-fluoro-2-methylphenoxy)-5-(trifluoromethyl) benzamide]: the inhibition at 0.1 µM was 50 to 80%. The same measure, in the same setting: the figure for `Cc1cc(F)ccc1Oc1cc(C2CC2)c(C(F)(F)F)cc1C(=O)Nc1ccc(F)c(OCCNS(C)(=O)=O)c1` [Example 59, 4-cyclopropyl-2-(4-fluoro-2-methylphenoxy)-N-(4-fluoro-3-(2-(methylsulfonamido)ethoxy)phenyl)-5-(trifluoromethyl) benzamide] is 20 to 50%; for `Cc1cc(F)ccc1Oc1cc(C2CC2)c(C(F)(F)F)cc1C(=O)Nc1ccc(F)c(OCC(O)CO)c1` (stereo not drawn) [Example 90] it is 50 to 80%. Consider `Cc1cc(F)ccc1Oc1cc(C2CC2)c(C(F)(F)F)cc1C(=O)Nc1ccc(F)c(OCC(O)CNc2ccccc2)c1` (stereo not drawn) [Example 92], for which the inhibition at 0.1 µM was in the range of 20 to 50%. As to `COc1cc(F)ccc1Oc1cc(C(F)(F)F)c(Cl)cc1C(=O)Nc1ccnc(OC[C@H](O)CO)c1` [Example 120], the inhibition at 0.1 µM was above 80%. `Cc1cc(F)ccc1Oc1cc(C2CC2)c(C(F)(F)F)cc1C(=O)Nc1ccc(F)c(OCC(O)CNc2cnn(C)c2)c1` (stereo not drawn) [Example 97]: the inhibition at 0.1 µM is 50 to 80%.

Regarding `Cc1cc(F)ccc1Oc1cc(C2CC2)c(C(F)(F)F)cc1C(=O)Nc1ccc(F)c(OCC(O)CNC(C)C)c1` (stereo not drawn) [Example 67], the inhibition at 0.1 µM is above 80%.

As to `Cc1cc(F)ccc1Oc1cc(C2CC2)c(C(F)(F)F)cc1C(=O)Nc1ccc(F)c(OCC(O)CNC23CC4CC(CC(C4)C2)C3)c1` (stereo not drawn) [Example 94], the inhibition at 0.1 µM fell in the range of 50 to 80%.

These data come from patent US20230303497A1, “BENZYLAMINE OR BENZYL ALCOHOL DERIVATIVE AND USES THEREOF” (CHENGDU HYPERWAY PHARMACEUTICALS CO., LTD, priority 2020, published 2023).
